Data: ChEMBL document CHEMBL1152671, “Structure-activity relationship studies of manzamine A: amidation of positions 6 and 8 of the beta-carboline moiety” (Bioorg Med Chem, 2009)
≈ marks a conversion by molar mass, not a printed value. Calls of active or inactive are those of the source. The rule behind the calls is not given here.

Key:
Candida albicans [1] = tested on: Candida albicans
Description: Antifungal activity against Candida albicans after 24 hrs by alamar blue assay

Vero = experiment: Cytotoxicity against african green monkey Vero cells up to 470 nM by neutral red assay; assay type: cell-based; conditions: chlorocebus sabaeus
Cryptococcus neoformans [2] = experiment: Antifungal activity against Cryptococcus neoformans after 24 hrs by alamar blue assay; assay type: functional
Aspergillus fumigatus [3] = tested on: Aspergillus fumigatus
Description: Antifungal activity against Aspergillus fumigatus after 24 hrs by alamar blue assay

Cryptococcus neoformans [4] = experiment: Antifungal activity against Cryptococcus neoformans by modified NCCLS method; assay type: functional, organism-based
Aspergillus fumigatus [5] = experiment: Antifungal activity against Aspergillus fumigatus by modified NCCLS method; assay type: functional, organism-based
[6] = tested on: Mycobacterium intracellulare; experiment: Antibacterial activity against Mycobacterium intracellular by alamar blue assay; assay type: functional, organism-based
[7] = tested on: Mycobacterium intracellulare; experiment: Antibacterial activity against Mycobacterium intracellular after 24 hrs by alamar blue assay; assay type: functional
Pseudomonas aeruginosa = experiment: Antibacterial activity against Pseudomonas aeruginosa by modified NCCLS method; assay type: functional, organism-based
Candida albicans [8] = experiment: Antifungal activity against Candida albicans by modified NCCLS method; assay type: functional, organism-based
Plasmodium falciparum [9] = experiment: Antimalarial activity against chloroquine-sensitive Plasmodium falciparum D6 infected in African green monkey (Cercopithecus aethiops) Vero cells assessed as parasite LDH activity after 72 hrs; assay type: functional, organism-based
Plasmodium falciparum [10] = experiment: Antimalarial activity against chloroquine-resistant Plasmodium falciparum W2 infected in African green monkey (Cercopithecus aethiops) (Cercopithecus aethiops) Vero cells assessed as parasite LDH activity after 72 hrs; assay type: functional, organism-based
Escherichia coli = experiment: Antibacterial activity against Escherichia coli by modified NCCLS method; assay type: functional, organism-based
[11] = Cryptococcus neoformans, read-out: IC50
[12] = Candida albicans, read-out: IC50

Row | SMILES | MIC (Candida albicans [1]) | Activity (Vero) | MIC (Cryptococcus neoformans [2]) | MIC (Aspergillus fumigatus [3]) | IC50 (Cryptococcus neoformans [4]) | IC50 (Aspergillus fumigatus [5]) | IC50 [6] [nM] | MIC [7] [µM] | Activity (Pseudomonas aeruginosa) | IC50 (Candida albicans [8]) | IC50 (Plasmodium falciparum [9]) [nM] | IC50 (Plasmodium falciparum [10]) [nM] | Activity (Escherichia coli) | IC50 (Cryptococcus neoformans [4]; [11]) [µM] | IC50 (Candida albicans [8]; [12]) [µM] | IC50 (Aspergillus fumigatus [5]; Aspergillus fumigatus, read-out: IC50) [µM]
1 | CC(C)(C)CC(=O)Nc1ccc2[nH]c3c(C4=C[C@@]5(O)CC/C=C\CCCCN6CC[C@@H]4[C@]4(C[C@@H]7/C=C\CCCCN7[C@H]45)C6)nccc3c2c1 | inactive | Non-toxic | inactive | inactive | Not Active | Not Active | 1360 | 1.89 (≈ 1.25 µg/mL) | inactive | Not Active | 211 | 302 | inactive | – | – | –
2 | CC(C)(C)CC(=O)Nc1cccc2c1[nH]c1c(C3=C[C@@]4(O)CC/C=C\CCCCN5CC[C@@H]3[C@]3(C[C@@H]6/C=C\CCCCN6[C@H]34)C5)nccc12 | inactive | Non-toxic | inactive | inactive | – | Not Active | 1510 | 3.78 (≈ 2.5 µg/mL) | inactive | Not Active | 139 | 127 | inactive | 14.4 | – | –
3 | Oc1cccc2c1[nH]c1c(C3=C[C@@]4(O)CC/C=C\CCCCN5CC[C@@H]3[C@]3(C[C@@H]6/C=C\CCCCN6[C@H]34)C5)nccc12 | inactive | – | – | – | – | – | 177 | – | – | – | 11 | 14 | – | 3.55 | 6.21 | –
4 | CC(=O)Nc1ccc2[nH]c3c(C4=C[C@@]5(O)CC/C=C\CCCCN6CC[C@@H]4[C@]4(C[C@@H]7/C=C\CCCCN7[C@H]45)C6)nccc3c2c1 [6-ACETAMIDOMANZAMINE A] | inactive | Non-toxic | inactive | inactive | Not Active | Not Active | 9910 | 16.5 (≈ 10 µg/mL) | inactive | Not Active | 1290 | 1980 | inactive | – | – | –
5 | CC(C)C(=O)Nc1ccc2[nH]c3c(C4=C[C@@]5(O)CC/C=C\CCCCN6CC[C@@H]4[C@]4(C[C@@H]7/C=C\CCCCN7[C@H]45)C6)nccc3c2c1 [6-ISOBUTAMIDOMANZAMINE A] | inactive | Non-toxic | inactive | inactive | Not Active | Not Active | 3160 | 3.95 (≈ 2.5 µg/mL) | inactive | Not Active | 1100 | 1550 | inactive | – | – | –
6 | CCCC(=O)Nc1ccc2[nH]c3c(C4=C[C@@]5(O)CC/C=C\CCCCN6CC[C@@H]4[C@]4(C[C@@H]7/C=C\CCCCN7[C@H]45)C6)nccc3c2c1 [6-N-BUTAMIDOMANZAMINE A] | inactive | Non-toxic | inactive | inactive | Not Active | Not Active | 4740 | 7.89 (≈ 5 µg/mL) | inactive | Not Active | 1150 | 1890 | inactive | – | – | –
7 | CCCCCC(=O)Nc1ccc2[nH]c3c(C4=C[C@@]5(O)CC/C=C\CCCCN6CC[C@@H]4[C@]4(C[C@@H]7/C=C\CCCCN7[C@H]45)C6)nccc3c2c1 [6-N-HEXAMIDOMANZAMINE A] | inactive | Non-toxic | inactive | inactive | Not Active | Not Active | 15100 | 30.2 (≈ 20 µg/mL) | inactive | Not Active | 680 | 786 | inactive | – | – | –
8 | CCCCCCC(=O)Nc1ccc2[nH]c3c(C4=C[C@@]5(O)CC/C=C\CCCCN6CC[C@@H]4[C@]4(C[C@@H]7/C=C\CCCCN7[C@H]45)C6)nccc3c2c1 [6-N-OCTAMIDOMANZAMINE A] | inactive | Non-toxic | inactive | inactive | Not Active | Not Active | 17400 | 29 (≈ 19.6 µg/mL) | inactive | Not Active | 696 | 754 | inactive | – | – | –
9 | CCCCC(=O)Nc1ccc2[nH]c3c(C4=C[C@@]5(O)CC/C=C\CCCCN6CC[C@@H]4[C@]4(C[C@@H]7/C=C\CCCCN7[C@H]45)C6)nccc3c2c1 [6-N-PENTAMIDOMANZAMINE A] | inactive | Non-toxic | inactive | inactive | Not Active | Not Active | 2320 | 3.86 (≈ 2.5 µg/mL) | inactive | Not Active | 1240 | 1480 | inactive | – | – | –
10 | CCC(=O)Nc1ccc2[nH]c3c(C4=C[C@@]5(O)CC/C=C\CCCCN6CC[C@@H]4[C@]4(C[C@@H]7/C=C\CCCCN7[C@H]45)C6)nccc3c2c1 [6-N-PROPAMIDOMANZAMINE A] | inactive | Non-toxic | inactive | inactive | Not Active | Not Active | 5650 | 8.07 (≈ 5 µg/mL) | inactive | Not Active | 1160 | 1940 | inactive | – | – | –
11 | CC(C)(C)C(=O)Nc1ccc2[nH]c3c(C4=C[C@@]5(O)CC/C=C\CCCCN6CC[C@@H]4[C@]4(C[C@@H]7/C=C\CCCCN7[C@H]45)C6)nccc3c2c1 [6-PIVALAMIDOANZAMINE A] | inactive | Non-toxic | inactive | inactive | Not Active | Not Active | 1540 | 3.86 (≈ 2.5 µg/mL) | inactive | Not Active | 231 | 417 | inactive | – | – | –
12 | CCC(=O)Nc1cccc2c1[nH]c1c(C3=C[C@@]4(O)CC/C=C\CCCCN5CC[C@@H]3[C@]3(C[C@@H]6/C=C\CCCCN6[C@H]34)C5)nccc12 [8-N-PROPAMIDOMANZAMINE A] | inactive | Non-toxic | – | inactive | – | – | 1520 | 2.02 (≈ 1.25 µg/mL) | inactive | – | 123 | 87 | inactive | – | > 32.3 | > 32.3
13 | C[C@@H]1CC[C@H]2[C@@H](C)C(=O)O[C@@H]3O[C@@]4(C)CC[C@@H]1[C@]32OO4 [ARTEMISININ] | – | – | – | – | – | – | – | – | – | – | 46 | 28 | – | – | – | –
14 | O=C(O)c1cn(C2CC2)c2cc(N3CCNCC3)c(F)cc2c1=O [CIPROFLOXACIN] | – | – | – | – | – | – | 1060 | – | – | – | – | – | – | – | – | –
